# Measurements from patent US4474748A, “Medicaments potentiated with phenyl alkanols” (priority 1981, dated 1984).
# Read-outs that look alike come from different tables or passages of the source.
# What was measured:
# [1] = tested on: C. acnes; test: Bactericidal (killing) efficacy in the presence of citrated human blood, C. acnes; type: cell-based; settings: Table II
# Text: In a similar manner, additional antimicrobial compositions of this invention have been tested and a summary of the test results appears in Table II.
# [2] = tested on: intact human skin; settings: alcohol potentiators 10%
# Protocol: To illustrate the enhanced penetration of the topical compositions of the invention, the following formulation was employed to prepare compositions which were then tested in a standardized skin blanching test wherein the degree of blanching corresponds to the degree of penetration.
# [3] = preparation containing 20% benzocaine; intact skin; cited from earlier work
# [4] = tested on: Staphylococcus aureus; test: Topical staphylococcal infection in rats; type: in vivo, Staphylococcus aureus in rats; settings: for Abscess formation (share of animals): topical staphylococcal infection
# Text: In tests and operative techniques carried out according to the procedure set forth in F. Goldschmidt, Reproducible Topical Staphylococcal Infection in Rats, Applied Microbiology, 23, No. 1, p.
# [5] = tested on: C. albicans; test: Killing efficacy in the presence of citrated human blood, C. albicans; type: cell-based
# Protocol: (§1) A series of the following four solutions was prepared in accordance with the foregoing procedure: […]
# [6] = tested on: S. aureus; test: Bactericidal (killing) efficacy in the presence of citrated human blood, S. aureus; type: cell-based; settings: Table II
# Protocol: as §1
# [7] = tested on: P. aeruginosa; test: Bactericidal (killing) efficacy in the presence of citrated human blood, P. aeruginosa; type: cell-based; settings: Table I, 40% ethanol
# Protocol: as §1
# [8] = stratum corneum; previous studies; cited from earlier work
smiles,measurement,setting,value
N=C(NCCCCCCNC(=N)NC(=N)Nc1ccc(Cl)cc1)NC(=N)Nc1ccc(Cl)cc1 [Hibitane],Number of Cells Survived,"[1]; 0.0125%, 1 minute",45 × 10^6 cells
same,Number of Cells Survived,"[1]; 0.0125%, 10 minutes",51 × 10^5 cells
same,Number of Cells Survived,"[1]; 0.0125%, 30 minutes",0 cells
CNC[C@H](O)c1ccc(O)c(O)c1 [Epinephrine (E)],Skin blanching score (penetration of epinephrine),[2]; 10 min after application,0
same,Skin blanching score (penetration of epinephrine),[2]; 20 min after application,0-1
same,Skin blanching score (penetration of epinephrine),[2]; 30 min after application,0
same,Skin blanching score (penetration of epinephrine),[2]; 40 min after application,0
same,Skin blanching score (penetration of epinephrine),[2]; 50 min after application,0
same,Skin blanching score (penetration of epinephrine),[2]; 60 min after application,0
CCOC(=O)c1ccc(N)cc1 [benzocaine],Surface anesthesia,[3],effective to cause surface anesthesia
CCCCCCCCCCCC[N+](C)(C)CCOc1ccccc1 [Domiphen bromide],Animals from which S. aureus could be recovered,[4]; 10^5 or more cells per gram of excised body wall,82.3%
same,Abscess formation (share of animals),[4]; rats,82.3%
COC1=CC(=O)C[C@@H](C)[C@]12Oc1c(Cl)c(OC)cc(OC)c1C2=O [Griseofulvin],Number of Cells Survived,"[1]; 0.0125%, 1 minute",94 × 10^5 cells
same,Number of Cells Survived,"[1]; 0.0125%, 10 minutes",99 × 10^5 cells
same,Number of Cells Survived,"[1]; 0.0125%, 30 minutes",92 × 10^5 cells
CN(C)C1C(=O)C(C(N)=O)=C(O)C2(O)C(=O)C3=C(O)c4c(O)cccc4C(C)(O)C3CC12 (stereo not drawn) [Tetracycline],Number of Cells Survived,"[5]; Table II, 0.05%, 1 minute",4.3 × 10^7 cells
same,Number of Cells Survived,"[5]; Table II, 0.05%, 10 minutes",3.9 × 10^7 cells
same,Number of Cells Survived,"[5]; Table II, 0.05%, 30 minutes",3.6 × 10^7 cells
same,Number of Cells Survived,"[6]; 0.05%, 1 minute",4.2 × 10^8 cells
same,Number of Cells Survived,"[6]; 0.05%, 10 minutes",4.1 × 10^8 cells
same,Number of Cells Survived,"[6]; 0.05%, 30 minutes",3.8 × 10^7 cells
"OCCC1CCCCC1 [2-Cyclohexylethanol, 2-cyclohexylethanol]",Number of Cells Survived,[7]; contact time 1 minute,1.1 × 10^6 cells
same,Number of Cells Survived,[7]; contact time 10 minutes,7.8 × 10^4 cells
same,Number of Cells Survived,[7]; contact time 30 minutes,4.8 × 10^4 cells
O=c1[nH]c(=O)n([C@H]2C[C@H](O)[C@@H](CO)O2)cc1I [5-iodo-2-deoxyuridine],Number of Cells Survived,"[6]; 0.2%, 1 minute",30 × 10^7 cells
same,Number of Cells Survived,"[6]; 0.2%, 10 minutes",30 × 10^7 cells
same,Number of Cells Survived,"[6]; 0.2%, 30 minutes",30 × 10^7 cells
CO[C@H]1/C=C/O[C@@]2(C)Oc3c(C)c(O)c4c(O)c(c(/C=N/N5CCN(C)CC5)c(O)c4c3C2=O)NC(=O)/C(C)=C\C=C\[C@H](C)[C@H](O)[C@@H](C)[C@@H](O)[C@@H](C)[C@H](OC(C)=O)[C@@H]1C [Rifampicin],Number of Cells Survived,"[1]; 0.0125%, 1 minute",17 × 10^6 cells
same,Number of Cells Survived,"[1]; 0.0125%, 10 minutes",17 × 10^6 cells
same,Number of Cells Survived,"[1]; 0.0125%, 30 minutes",13 × 10^6 cells
N[C@@H]1CON=C1O [Cycloserine],Number of Cells Survived,"[6]; 0.0125%, 1 minute",60 × 10^7 cells
same,Number of Cells Survived,"[6]; 0.0125%, 10 minutes",60 × 10^7 cells
same,Number of Cells Survived,"[6]; 0.0125%, 30 minutes",60 × 10^7 cells
"CCCC(C)C(C)(C)O (stereo not drawn) [2,3-Dimethyl-2-hexanol, 2,3-dimethyl-2-hexanol]",Number of Cells Survived,[7]; contact time 1 minute,8.5 × 10^6 cells
same,Number of Cells Survived,[7]; contact time 10 minutes,7.6 × 10^6 cells
same,Number of Cells Survived,[7]; contact time 30 minutes,5.1 × 10^6 cells
"O=C(Nc1ccc(Cl)cc1)Nc1ccc(Cl)c(Cl)c1 [3,4,4'-Chlorocarbanilide]",Number of Cells Survived,"[6]; 0.05%, 1 minute",6.1 × 10^7 cells
same,Number of Cells Survived,"[6]; 0.05%, 10 minutes",5.2 × 10^7 cells
same,Number of Cells Survived,"[6]; 0.05%, 30 minutes",3.0 × 10^7 cells
[O-][n+]1ccccc1[S-].[O-][n+]1ccccc1[S-].[Zn+2] [Zn--omadine],Number of Cells Survived,"[5]; Table I, contact time 1 minute, human blood, 40% ethanol",9 × 10^8 cells
same,Number of Cells Survived,"[5]; Table I, contact time 10 minutes, human blood, 40% ethanol",8.0 × 10^8 cells
same,Number of Cells Survived,"[5]; Table I, contact time 30 minutes, human blood, 40% ethanol",7 × 10^8 cells
CCCCCCCCCCCCC[N+](C)(C)Cc1ccccc1 [Benzalkonium chloride],Number of Cells Survived,"[6]; 0.05%, 1 minute",9.0 × 10^5 cells
same,Number of Cells Survived,"[6]; 0.05%, 10 minutes",1.0 × 10^5 cells
same,Number of Cells Survived,"[6]; 0.05%, 30 minutes",2.9 × 10^3 cells
"C[S+](C)[O-] [dimethylsulfoxide (DMSO), dimethylsulfoxide]",Absorption of topically applied drugs,[8],can enhance the absorption of topically applied drugs through the stratum corneum
"CCC(O)C1CCCCC1 (stereo not drawn) [1-Cyclohexyl-1-propanol, 1-cyclohexyl-1-propanol]",Recoverable Staphylococcus aureus,"[4]; 3.0%, alone, rats",≥ 10^6 cells per gram of excised body wall
same,Abscess formation (share of animals),[4]; rats,100%
Cc1cc(N)c2ccccc2[n+]1CCCCCCCCCC[n+]1c(C)cc(N)c2ccccc21 [Dequalinium chloride],Number of Cells Survived,"[1]; 0.00125%, 1 minute",26 × 10^5 cells
same,Number of Cells Survived,"[1]; 0.00125%, 10 minutes",14 × 10^2 cells
same,Number of Cells Survived,"[1]; 0.00125%, 30 minutes",30 cells
"O=C(Nc1ccc(Br)cc1)c1cc(Br)cc(Br)c1O [Temasept IV, 3,4',5tribromosalicylanilide]",Number of Cells Survived,"[6]; 0.05%, 1 minute",4.2 × 10^8 cells
same,Number of Cells Survived,"[6]; 0.05%, 10 minutes",4.0 × 10^8 cells
same,Number of Cells Survived,"[6]; 0.05%, 30 minutes",1.2 × 10^8 cells
CC[C@H]1OC(=O)[C@H](C)[C@@H](O[C@H]2C[C@@](C)(OC)[C@@H](O)[C@H](C)O2)[C@H](C)[C@@H](O[C@@H]2O[C@H](C)C[C@H](N(C)C)[C@H]2O)[C@](C)(O)C[C@@H](C)C(=O)[C@H](C)[C@@H](O)[C@]1(C)O [Erythromycin],Number of Cells Survived,"[5]; Table II, 0.025%, 1 minute",7.2 × 10^8 cells
same,Number of Cells Survived,"[5]; Table II, 0.025%, 10 minutes",7.1 × 10^8 cells
same,Number of Cells Survived,"[5]; Table II, 0.025%, 30 minutes",9.2 × 10^7 cells
same,Number of Cells Survived,"[1]; 0.0125%, 1 minute",22 × 10^5 cells
same,Number of Cells Survived,"[1]; 0.0125%, 10 minutes",21 × 10^5 cells
same,Number of Cells Survived,"[1]; 0.0125%, 30 minutes",18 × 10^5 cells
same,Number of Cells Survived,"[6]; 0.025%, 1 minute",4.9 × 10^7 cells
same,Number of Cells Survived,"[6]; 0.025%, 10 minutes",4.6 × 10^7 cells
same,Number of Cells Survived,"[6]; 0.025%, 30 minutes",4.3 × 10^ 7 cells
